Assay results: patent US11291661B2, “Pharmaceutical composition” (priority 2019, dated 2022)

Columns and labels:
[1] = Biopharmaceutical classification / solubility statement; format: physicochemical
[2] = Absorption, distribution, metabolism and excretion after a single 1-mg oral dose of [14C]Compound (A); format: in vivo, human
Excerpt: Primary phase 1 oxidative pathways included:
1) oxidative O-dealkylation; 2) oxidation at the phenyl cyclopropyl isoxazole moiety; 3) oxidation at the benzothiazole and fused ring structure. Metabolites containing multiple oxidative modifications and/or glucuronidation to oxidative products were also observed in human excreta.

## O=C(O)c1cc(F)c2nc(N3C4CC[C@H]3C[C@@H](OCc3c(-c5ccccc5OC(F)(F)F)noc3C3CC3)C4)sc2c1 [Compound (A), 2-[(1R,3r,5S)-3-({5-cyclopropyl-3-[2-(trifluoromethoxy)phenyl]-1,2-oxazol-4-yl}methoxy)-8-azabicyclo[3.2.1]octan-8-yl]-4-fluoro-1,3-benzothiazole-6-carboxylic acid]
[1]
  water solubility: low water solubility
[1]; poorly soluble and poorly permeable compound
  biopharmaceutical classification system class: class IV
[2]
  Faecal excretion of related radioactivity: ~65 % of the total dose
  Unchanged Compound (A) in the plasma: ~92 % of total radioactivity
  urinary excretion of related radioactivity: ~29 % of the total dose
[2]; 312 hours collection period
  Mass balance, administered dose recovered in excreta: approximately 94%
[2]; human, plasma, read-out: half time (t1/2) in plasma (converted)
  half-life: 13.5 h
[2]; human, plasma, read-out: maximum concentration (Cmax) of parent in plasma
  Cmax: 33.5 ng/mL
[2]; human, plasma, read-out: median Tmax
  Tmax: 4 h
